Measured values reported in US10280179B2, “Spiroquinoxaline derivatives as inhibitors of non-apoptotic regulated cell-death” (Helmholtz Zentrum Munchen—Deutches Forschungszentrum Fur …, priority 2013, dated 2019).

Legend:
Assay type in all cases: cell-based
[1] = test system: mouse hippocampal cell line (Ht22); test: Inhibition of glutamate-induced non-apoptotic cell death (Example B.2); conditions: HT-22, Ht22 cells, glutamate-induced cell death, read-out: Ht22/GLU
Text: Inhibition of Glutamate-Induced Non-Apoptotic Cell Death by Compounds of the Present Invention
Glutamate toxicity is conferred on cells from the mouse hippocampal cell line (Ht22) by inhibition of the cysteine/glutamate antiporter, System xc-, leading to impaired cysteine uptake and subsequent GSH depletion. This model is frequently used for mimicking glutathione depletion following oxidative stress in stroke, brain trauma and other neurodegenerative diseases and cellular conditions following ischemia (for example: van Leyen et al, J. Neurochem. 92:824-30 (2005)).
Compounds disclosed herein were evaluated for their ability to promote cell survival upon administration of a lethal dose of glutamate (GLU) to the cell-culture medium.
Briefly, Ht22 cells (ATCC) were propagated DMEM supplemented with 10% FBS/1% Penicillin-Streptomycin, and then seeded onto 96-well plates at a concentration of 2,000 cells/well in 100 μL of MEDIA, simultaneously with glutamate (Sigma Aldrich) to a final concentration of 5 mM, together with increasing concentrations of the compound to be tested (0.5 pM to 100 μM), and the plates incubated at 37° C./5% CO2 for 72 hours. Compound dilutions were prepared from 10 mM stocks dissolved in DMSO and diluted in media. Cells treated with glutamate alone were used as negative control and alpha-tocopherol (Sigma Aldrich) was used as positive control. Compound concentrations were tested in triplicate. After incubation, cell survival was detected and quantified as described in Example B.1.

[2] = Cellular toxicity, same assay as Example B.4 without TAM (Example B.5); conditions: mouse; Pfa1 cells without TAM; read-out: TC50 (the source's name)
Text: Cellular Toxicity of Compounds of the Invention
An estimate of the toxicity for compounds of the invention was obtained by using the same assay as described in Example B.4, but without the addition of TAM. […] Such TC50 values obtained for certain compounds disclosed herein, together with an approximate therapeutic window (estimated by dividing each TC50 by the corresponding IC50 determined from example B.4) are shown in Table 3.

Pfa1 cells = test: Inhibition of non-apoptotic cell death after tamoxifen-induced GPx4 knockout in a recombinant cell line (Example B.4); conditions: Mus musculus, read-out: Pfa1/TAM IC50
Text: Inhibition of Non-Apoptotic Cell-Death by Compounds Disclosed Herein Using a Recombinant Cell Line
To combat high intracellular ROS levels, mammalian cells have evolved an intricate network of ROS scavenging in cells, in which the thioredoxin and glutathione (GSH) dependent systems prevail. […] Knockout of GPx4 in neurons causes massive neurodegeneration in cortical, cerebellar and hippocampal neurons underscoring the high relevance of ROS-induced cell death signaling in the brain. Briefly, immortalised fibroblasts from these mice were made to contain tamoxifen-inducible CreERT2, which catalyzes the functional ablation of both copies of GPx4 and resulting in a complete knockout of GPx4, a massive ROS burst, and cell death in cell culture. These cells (Pfa1 cells) were used to characterize compounds of the present invention, whereby tamoxifen (TAM) was given on day 0 along with the compound under test, and 72 hours later cell survival was evaluated using AlamarBlue.

SMILES	IC50 [1]	CC50 [2]	IC50 (Pfa1 cells)
CN1CCC2(CC1)Nc1ccccc1N=C2NCc1cccc(C(F)(F)F)c1 [N-215]	< 50 nM	5000 to 10000 nM	< 50 nM
Fc1cccc(CNC2=Nc3ccccc3NC23CCCCC3)c1 [C-5]	< 5000 nM	20000 to 50000 nM	< 500 nM
Clc1cc2c(cc1Cl)NC1(CCCCCC1)C(NCc1ccccc1Cl)=N2 [C-243]	< 1000 nM	10000 to 20000 nM	< 500 nM
Clc1cccc(CNC2=Nc3cc(Cl)c(Cl)cc3NC23CCNCC3)c1 [N-115]	< 50 nM	200 to 500 nM	< 10 nM
c1ccc(CCNC2=Nc3ccccc3NC23CCOCC3)cc1 [O/S-347]	< 5000 nM	50000 to 100000 nM	< 5000 nM
CN1CCC2(CC1)Nc1ccccc1N=C2NCc1ccc(Cl)cc1 [N-213]	< 200 nM	5000 to 10000 nM	< 100 nM
c1ccc(CCCNC2=Nc3ccccc3NC23CCSCC3)cc1 [O/S-356]	< 2000 nM	20000 to 50000 nM	< 2000 nM
c1ccc(CCCNC2=Nc3ccccc3NC23CCOCC3)cc1 [O/S-343]	< 5000 nM	20000 to 50000 nM	< 2000 nM
COc1cccc(CNC2=Nc3ccccc3NC23CCNCC3)c1 [N-14]	< 200 nM	20000 to 50000 nM	< 500 nM
c1ccc(CCCNC2=Nc3ccccc3NC23CCCCC3)cc1 [C-221]	< 1000 nM	5000 to 10000 nM	< 1000 nM
Cc1cc2c(cc1C)NC1(CCN(C)CC1)C(NCc1ccccc1)=N2 [N-233]	< 100 nM	10000 to 20000 nM	< 200 nM
Clc1cccc(CCNC2=Nc3ccccc3NC23CCOCC3)c1 [O/S-79]	< 1000 nM	20000 to 50000 nM	< 1000 nM
c1ccc(CCCCNC2=Nc3ccccc3NC23CCNCC3)cc1 [N-225]	< 1000 nM	1000 to 2000 nM	< 50 nM
Clc1ccc(CNC2=Nc3ccccc3NC23CCCCC3)cc1 [C-3]	< 500 nM	20000 to 50000 nM	< 200 nM
Clc1cc2c(cc1Cl)NC1(CCSCC1)C(NCc1ccccc1)=N2 [O/S-349]	< 500 nM	20000 to 50000 nM	< 200 nM
c1ccc(CCNC2=Nc3ccccc3NC23CCCCC3)cc1 [C-226]	< 2000 nM	10000 to 20000 nM	< 1000 nM
Clc1cccc(CCNC2=Nc3ccccc3NC23CCNCC3)c1 [N-79]	< 50 nM	2000 to 5000 nM	< 100 nM
Cc1cc(C)cc(CNC2=Nc3ccccc3NC23CCOCC3)c1 [O/S-344]	< 2000 nM	20000 to 50000 nM	< 1000 nM
O=S1(=O)CCC2(CC1)Nc1cc(Cl)c(Cl)cc1N=C2NCc1ccccc1 [O/S-360]	< 2000 nM	–	< 2000 nM

SMILES	IC50 [1]	CC50 [2]	IC50 (Pfa1 cells)
Clc1ccc(CNC2=Nc3ccccc3NC23CCCCC3)c(Cl)c1 [C-230]	< 500 nM	20000 to 50000 nM	< 100 nM
Cc1cccc(CNC2=Nc3cc(C)c(C)cc3NC23CCNCC3)c1 [N-235]	< 50 nM	1000 to 2000 nM	< 50 nM
Clc1cc2c(cc1Cl)NC1(CCCCCC1)C(NCc1ccccc1)=N2 [C-235]	< 500 nM	10000 to 20000 nM	< 200 nM
Fc1cccc(CNC2=Nc3ccccc3NC23CCOCC3)c1 [O/S-5]	< 5000 nM	50000 to 100000 nM	< 2000 nM
CC(C)(C)c1ccc(CNC2=Nc3ccccc3NC23CCOCC3)cc1 [O/S-350]	< 500 nM	20000 to 50000 nM	< 500 nM
Cc1cccc(CNC2=Nc3ccccc3NC23CCCCC3)c1 [C-11]	< 1000 nM	10000 to 20000 nM	< 500 nM
Fc1cc(Cl)ccc1CNC1=Nc2ccccc2NC12CCOCC2 [O/S-61]	< 1000 nM	20000 to 50000 nM	< 1000 nM
Cc1cc(C)cc(CNC2=Nc3ccccc3NC23CCCCC3)c1 [C-225]	< 500 nM	10000 to 20000 nM	< 500 nM
Clc1cccc(CNC2=Nc3cc(Cl)c(Cl)cc3NC23CCCCCC3)c1 [C-234]	< 500 nM	20000 to 50000 nM	< 500 nM
FC(F)(F)c1cccc(CNC2=Nc3ccccc3NC23CCCCC3)c1 [C-23]	< 500 nM	10000 to 20000 nM	< 50 nM
Cc1cc2c(cc1C)NC1(CCNCC1)C(NCc1ccc(Cl)cc1)=N2 [N-214]	< 50 nM	1000 to 2000 nM	< 10 nM
Clc1cc2c(cc1Cl)NC1(CCCNCC1)C(NCc1ccccc1)=N2 (centres unmarked) [N-236]	< 50 nM	2000 to 5000 nM	< 100 nM
Clc1cc2c(cc1Cl)NC1(CCNCC1)C(NCc1ccccc1Cl)=N2 [N-207]	< 50 nM	500 to 1000 nM	< 10 nM
Fc1cc(Cl)ccc1CNC1=Nc2ccccc2NC12CCCCC2 [C-61]	< 500 nM	20000 to 50000 nM	< 200 nM
Fc1cccc(F)c1CNC1=Nc2ccccc2NC12CCOCC2 [O/S-341]	< 2000 nM	50000 to 100000 nM	< 2000 nM
Clc1ccc(CNC2=Nc3ccccc3NC23CCNCC3)c(Cl)c1 [N-56]	< 50 nM	1000 to 2000 nM	< 10 nM
CC(NC1=Nc2ccccc2NC12CCNCC2)c1ccccc1 (centres unmarked) [N-218]	< 500 nM	20000 to 50000 nM	< 500 nM
COc1cccc(CNC2=Nc3ccccc3NC23CCOCC3)c1 [O/S-14]	< 5000 nM	50000 to 100000 nM	< 5000 nM
Cc1cc2c(cc1C)NC1(CCCCC1)C(NCc1ccccc1)=N2 [C-218]	< 100 nM	20000 to 50000 nM	< 100 nM

SMILES	IC50 [1]	CC50 [2]	IC50 (Pfa1 cells)
Fc1ccc(CNC2=Nc3ccccc3NC23CCSCC3)c(F)c1 [O/S-359]	< 5000 nM	50000 to 100000 nM	> 5000 nM
c1ccc(C(CNC2=Nc3ccccc3NC23CCOCC3)c2ccccc2)cc1 [O/S-352]	< 1000 nM	20000 to 50000 nM	< 1000 nM
Clc1ccc(CNC2=Nc3ccccc3NC23CCOCC3)c(Cl)c1 [O/S-354]	< 500 nM	20000 to 50000 nM	< 500 nM
COc1cccc(CNC2=Nc3ccccc3NC23CCCCCC3)c1 [C-224]	< 1000 nM	20000 to 50000 nM	< 500 nM
Cc1cc2c(cc1C)NC1(CCCCCCC1)C(NCc1ccccc1)=N2 [C-241]	< 200 nM	5000 to 10000 nM	< 500 nM
c1ccc(CNC2=Nc3ccccc3NC23CCNCC3)cc1 [N-206]	< 500 nM	20000 to 50000 nM	< 200 nM
Cc1cc2c(cc1C)NC1(CCCCCC1)C(NCc1ccccc1)=N2 [C-239]	< 200 nM	10000 to 20000 nM	< 200 nM
Fc1cc2c(cc1F)NC1(CCCCC1)C(NCc1ccccc1)=N2 [C-238]	< 200 nM	20000 to 50000 nM	< 500 nM
CC(CCc1ccccc1)NC1=Nc2ccccc2NC12CCNCC2 (centres unmarked) [N-222]	< 50 nM	20000 to 50000 nM	< 200 nM
Clc1ccc(CNC2=Nc3ccccc3NC23CCCCCC3)cc1 [C-220]	< 500 nM	10000 to 20000 nM	< 200 nM
Fc1cccc(CNC2=Nc3ccccc3NC23CCNCC3)c1 [N-5]	< 50 nM	5000 to 10000 nM	< 100 nM
CN1CCC2(CC1)Nc1cc(F)c(F)cc1N=C2NCc1ccccc1 [N-229]	< 100 nM	5000 to 10000 nM	< 100 nM
Cc1cccc(CNC2=Nc3cc(Cl)c(Cl)cc3NC23CCNCC3)c1 [N-224]	< 50 nM	1000 to 2000 nM	< 10 nM
Fc1ccc(CNC2=Nc3ccccc3NC23CCOCC3)c(F)c1 [O/S-355]	< 2000 nM	50000 to 100000 nM	< 2000 nM
CC(NC1=Nc2ccccc2NC12CCOCC2)c1ccccc1 (centres unmarked) [O/S-348]	< 5000 nM	50000 to 100000 nM	< 5000 nM
c1ccc(CCCCNC2=Nc3ccccc3NC23CCOCC3)cc1 [O/S-358]	< 2000 nM	10000 to 20000 nM	< 2000 nM
Cc1cccc(CNC2=Nc3ccccc3NC23CCOCC3)c1 [O/S-11]	< 5000 nM	50000 to 100000 nM	< 2000 nM
CC(C)(C)c1ccc(CNC2=Nc3ccccc3NC23CCCCC3)cc1 [C-269]	< 500 nM	5000 to 10000 nM	< 200 nM
Fc1cccc(F)c1CNC1=Nc2cc(Cl)c(Cl)cc2NC12CCCCC2 [C-240]	< 200 nM	5000 to 10000 nM	< 500 nM
